Key:
Type in all cases: biochemical
[1] = target: phosphorylated p-38-alpha kinase (Homo sapiens, UniProt Q16539); experiment: P-38 alpha kinase assay P1; conditions: Method P1; 2 h pre-incubation before ATP
KDR kinase = KDR kinase (Homo sapiens, UniProt P35968, DEL940-989/E990V); experiment: KDR kinase assay K1; conditions: read-out: Results, % @ concentration μM, Method K1; @ 10 μM
Method: IC50 values were calculated from a series of percent inhibition values determined at a range of inhibitor concentrations using software routines as implemented in the GraphPad Prism software package.

B-Raf(V599E) kinase = B-Raf(V599E) kinase (Homo sapiens, UniProt P15056, V600E); experiment: B-Raf(V599E) kinase assay B1; conditions: for IC50: Method B1, construct 1; for inhibition at 1 µM: read-out: Results, % @ concentration μM
Sequence of B-Raf(V599E) kinase (P15056 with tags, fused parts or gaps V600E): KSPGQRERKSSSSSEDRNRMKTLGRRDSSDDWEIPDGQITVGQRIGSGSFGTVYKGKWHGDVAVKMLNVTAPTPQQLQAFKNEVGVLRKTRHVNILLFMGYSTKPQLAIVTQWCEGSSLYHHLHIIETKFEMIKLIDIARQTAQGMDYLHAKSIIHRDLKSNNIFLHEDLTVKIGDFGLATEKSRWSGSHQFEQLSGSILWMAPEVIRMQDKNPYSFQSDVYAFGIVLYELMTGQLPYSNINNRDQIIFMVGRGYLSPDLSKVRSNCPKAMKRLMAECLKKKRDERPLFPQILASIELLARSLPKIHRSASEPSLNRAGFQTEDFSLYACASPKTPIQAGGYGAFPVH
Method: The test compounds were incubated with the reaction mixture at 30° C. for 2 h. […] The reaction rate was calculated using the 1.5 h to 2.5 h time frame. […] IC50 values were calculated from a series of percent inhibition values determined at a range of inhibitor concentrations using software routines as implemented in the GraphPad Prism software package.

[2] = target: T1, phospho p-38 alpha kinase (Homo sapiens, UniProt Q16539); experiment: P-38 alpha kinase assay (spectrophotometric, pyruvate kinase/lactate dehydrogenase coupled); conditions: Table 5; for IC50: assay not named, read-out: uM
T1 construct: purchased Panvera
T1 sequence (Q16539 whole entry): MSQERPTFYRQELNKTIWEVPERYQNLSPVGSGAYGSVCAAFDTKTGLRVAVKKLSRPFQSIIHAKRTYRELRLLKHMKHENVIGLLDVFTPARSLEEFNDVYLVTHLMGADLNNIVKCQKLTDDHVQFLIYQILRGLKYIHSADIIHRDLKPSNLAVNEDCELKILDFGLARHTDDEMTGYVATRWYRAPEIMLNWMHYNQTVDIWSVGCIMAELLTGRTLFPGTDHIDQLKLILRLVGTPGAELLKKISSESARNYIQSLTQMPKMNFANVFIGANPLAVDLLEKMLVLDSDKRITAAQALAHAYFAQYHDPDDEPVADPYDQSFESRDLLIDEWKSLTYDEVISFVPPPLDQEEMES

Sequence of KDR kinase (P35968 with tags, fused parts or gaps DEL940-989/E990V): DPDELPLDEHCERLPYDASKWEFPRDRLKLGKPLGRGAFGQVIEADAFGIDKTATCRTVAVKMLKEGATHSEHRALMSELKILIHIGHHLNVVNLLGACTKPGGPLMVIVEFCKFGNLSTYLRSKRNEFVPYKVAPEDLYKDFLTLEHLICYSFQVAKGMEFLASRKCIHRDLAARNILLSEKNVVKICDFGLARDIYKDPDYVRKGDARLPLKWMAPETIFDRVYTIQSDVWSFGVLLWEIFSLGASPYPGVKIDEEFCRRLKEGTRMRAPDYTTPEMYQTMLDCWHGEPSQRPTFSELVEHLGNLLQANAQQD
Sequence of phosphorylated p-38-alpha kinase (Q16539 1-360 isoform Q16539-2): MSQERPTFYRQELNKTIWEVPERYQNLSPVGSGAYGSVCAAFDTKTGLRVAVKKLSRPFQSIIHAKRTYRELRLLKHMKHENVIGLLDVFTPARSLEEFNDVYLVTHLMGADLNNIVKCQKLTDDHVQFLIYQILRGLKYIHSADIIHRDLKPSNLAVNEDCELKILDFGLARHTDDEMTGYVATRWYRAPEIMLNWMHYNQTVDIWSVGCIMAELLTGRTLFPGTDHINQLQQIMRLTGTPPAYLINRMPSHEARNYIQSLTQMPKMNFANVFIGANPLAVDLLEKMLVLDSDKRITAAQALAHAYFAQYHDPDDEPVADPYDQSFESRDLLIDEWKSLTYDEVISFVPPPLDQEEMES

Compound | IC50 [1] | inhibition at 10 µM (KDR kinase) | IC50 (B-Raf(V599E) kinase) | inhibition at 1 µM (B-Raf(V599E) kinase) | IC50 [2] | % @ concentration, uM ([2]; @ 1 uM) | % @ concentration, uM ([2]; @ 10 uM)
O=C(Cc1cccc(-n2nc(-c3cccs3)cc2NC(=O)Nc2cccc(Cl)c2Cl)c1)NCC(O)CO (centres unmarked) [Example 460, 1-(2,3-dichlorophenyl)-3-(1-(3-(2-(2,3-dihydroxypropylamino)-2-oxoethyl)phenyl)-3-(thiophen-2-yl)-1H-pyrazol-5-yl)urea] | 0.008 µM | 26% | 2.4 µM |  |  |  | 
NC(=O)Cc1cccc(-n2nc(-c3cccc(F)c3)cc2NC(=O)Nc2cccc(Cl)c2Cl)c1 [Example 449, 1-(1-(3-(2-amino-2-oxoethyl)phenyl)-3-(3-fluorophenyl)-1H-pyrazol-5-yl)-3-(2,3-dichlorophenyl)urea] | 0.022 µM | 33% |  |  |  |  | 
O=C(Nc1cccc(Cl)c1Cl)Nc1cc(-c2ccccc2)nn1-c1cccc(CO)c1 [Example 484, 1-(2,3-dichlorophenyl)-3-(1-(3-(hydroxymethyl)phenyl)-3-phenyl-1H-pyraol-5-yl)urea] | 0.009 µM | 37% | 7.4 µM |  |  |  | 
O=C(Cc1cccc(-n2nc(-c3cccs3)cc2NC(=O)Nc2cccc(Cl)c2Cl)c1)NC(CO)CO [Example 462, 1-(2,3-dichlorophenyl)-3-(1-(3-(2-(1,3-dihydroxypropan-2-ylamino)-2-oxoethyl)phenyl)-3-(thiophen-2-yl)-1H-pyrazol-5-yl)urea] | 0.008 µM | 25% |  | 43% |  |  | 
O=C(O)Cc1ccc(-n2nc(-c3ccccc3F)cc2NC(=O)Nc2cccc(Cl)c2Cl)cc1 [Example 440, 2-(4-(5-(3-(2,3-dichlorophenyl)ureido)-3-(2-fluorophenyl)-1H-pyrazol-1-yl)phenyl)acetic acid] | 0.009 µM | 56% |  |  | 0.92 µM |  | 
O=C(Cc1cccc(-n2nc(-c3cccs3)cc2NC(=O)Nc2cccc(Cl)c2Cl)c1)NCCO [Example 457, 1-(2,3-dichlorophenyl)-3-(1-(3-(2-(2-hydroxyethylamino)-2-oxoethyl)phenyl)-3-(thiophen-2-yl)-1H-pyrazol-5-yl)urea] | 0.008 µM | 31% |  |  | 1.1 µM |  | 
O=C(O)Cc1ccc(-n2nc(-c3ccccc3)cc2NC(=O)Nc2cccc(Cl)c2Cl)cc1 [Example 438, 2-(4-(5-(3-(2,3-dichlorophenyl)ureido)-3-phenyl-1H-pyrazol-1-yl)phenyl)acetic acid] |  | 39% |  |  | 1.3 µM |  | 
O=C(Cc1cccc(-n2nc(-c3ccccc3F)cc2NC(=O)Nc2cccc(Cl)c2Cl)c1)NCCO [Example 456, 1-(2,3-dichlorophenyl)-3-(3-(2-fluorophenyl)-1-(3-(2-(2-hydroxyethylamino)-2-oxoethyl)phenyl)-1H-pyrazol-5-yl)urea] | 0.015 µM | 53% |  |  | 0.04 µM |  | 
NC(=O)Cc1cccc(-n2nc(-c3ccccc3F)cc2NC(=O)Nc2cccc(Cl)c2Cl)c1 [Example 450, 1-(1-(3-(2-amino-2-oxoethyl)phenyl)-3-(2-fluorophenyl)-1H-pyrazol-5-yl)-3-(2,3-dichlorophenyl)urea] | 0.013 µM | 45% |  |  |  | 89% | 192%
O=C(O)Cc1ccc(-n2nc(-c3cccs3)cc2NC(=O)Nc2cccc(Cl)c2Cl)cc1 [Example 442, 2-(4-(5-(3-(2,3-dichlorophenyl)ureido)-3-(thiophen-2-yl)-1H-pyrazol-1-yl)phenyl)acetic acid] |  | 25% |  | 24% | 3.01 µM |  | 
CC(C(=O)O)c1ccc(-n2nc(-c3cccs3)cc2NC(=O)Nc2cccc(Cl)c2Cl)cc1 (centres unmarked) [Example 443, 2-(4-(5-(3-(2,3-dichlorophenyl)ureido)-3-(thiophen-2-yl)-1H-pyrazol-1-yl)phenyl)propanoic acid] | 0.03 µM | 33% |  | 20% |  |  | 
